In patent publication US20240294531A1, “COVALENT HETEROCYCLES AND USES THEREOF” (Kumquat Biosciences Inc., priority 2022, published 2024):
pIC50: −log10 of the molar value.

What was measured:
BTK wildtype protein = BTK wildtype protein (Homo sapiens (Human), UniProt Q06187); experiment: BTK wildtype HTRF displacement assay; type: binding; details: 1-hour incubation; read-out: BTK (wt) IC50
Outline: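 Tracer-displacement HTRF format: compound and tracer 239 compete at the BTK active site, detected via anti-GST-Tb on GST-tagged full-length enzyme. One-hour room-temperature incubation; compounds dosed at six four-fold steps down from 5 μM. Percent inhibition versus DMSO gives IC50 by constrained four-parameter logistic fit.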

BTK C481S protein = BTK C481S protein (Homo sapiens (Human), UniProt Q06187, C481S); experiment: BTK C481S HTRF displacement assay; type: binding; details: 1-hour incubation
Sequence of BTK C481S protein (Q06187 2-659 C481S): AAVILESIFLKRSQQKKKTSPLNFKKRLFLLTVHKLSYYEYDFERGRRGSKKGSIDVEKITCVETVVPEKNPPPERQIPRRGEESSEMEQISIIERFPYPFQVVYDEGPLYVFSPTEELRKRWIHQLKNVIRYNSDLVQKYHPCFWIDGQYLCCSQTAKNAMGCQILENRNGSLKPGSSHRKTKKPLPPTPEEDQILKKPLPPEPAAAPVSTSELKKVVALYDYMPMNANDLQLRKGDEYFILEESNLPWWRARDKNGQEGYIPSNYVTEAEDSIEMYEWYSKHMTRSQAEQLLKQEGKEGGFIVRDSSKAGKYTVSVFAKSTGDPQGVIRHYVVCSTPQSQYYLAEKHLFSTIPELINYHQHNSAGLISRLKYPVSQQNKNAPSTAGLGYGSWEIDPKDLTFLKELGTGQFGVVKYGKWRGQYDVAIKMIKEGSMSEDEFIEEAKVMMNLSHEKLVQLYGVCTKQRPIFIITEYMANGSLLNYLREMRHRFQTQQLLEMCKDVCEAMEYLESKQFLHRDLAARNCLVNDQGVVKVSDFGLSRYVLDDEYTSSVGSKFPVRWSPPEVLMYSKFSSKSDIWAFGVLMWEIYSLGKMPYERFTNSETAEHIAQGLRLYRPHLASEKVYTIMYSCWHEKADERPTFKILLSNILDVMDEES
Outline: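 Tracer displacement read by HTRF after 1 hour at room temperature: GST-BTK C481S 2-659, 50 nM tracer 239 (Kd 54 nM), anti-GST antibody, compound in six four-fold doses from 5 μM. Percent inhibition versus DMSO fitted (bottom 0, top 100) for IC50, converted to KI via Cheng-Prusoff.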

MGLL = MGLL (Homo sapiens (Human), UniProt Q99685, K36A/L169S/L176S); experiment: MGLL compound modification assay (intact protein LC-MS); type: binding; details: at 4 hours; compound concentration of 3 μM
Sequence of MGLL (Q99685 whole entry K36A/L169S/L176S): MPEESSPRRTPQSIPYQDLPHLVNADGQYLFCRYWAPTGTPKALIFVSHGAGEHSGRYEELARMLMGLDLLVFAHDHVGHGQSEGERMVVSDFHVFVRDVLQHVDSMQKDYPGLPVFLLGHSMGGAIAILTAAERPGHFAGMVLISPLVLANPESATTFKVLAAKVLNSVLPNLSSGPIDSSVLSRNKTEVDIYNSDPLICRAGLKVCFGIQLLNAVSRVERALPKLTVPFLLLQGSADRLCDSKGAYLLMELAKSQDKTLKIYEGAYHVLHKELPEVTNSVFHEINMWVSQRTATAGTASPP
Method: Test compounds were prepared as 10 mM stock solutions in DMSO (Fisher cat #BP231-100). Human recombinant MGLL protein 1-303 containing K36A, L169S, L176S amino acid substitutions were produced at in house. On the day of the assay, MGLL protein was diluted to 2 μM in assay buffer (20 mM Hepes, pH 7.5, 150 mM NaCl, 1 mM MgCl2, 1 mM DTT). For testing MGLL modification, compounds were diluted to 50× final test concentration in DMSO in 96-well storage plates. […] of the diluted 50× compounds were added to appropriate wells in the PCR plate (Fisher cat #AB-0800). 49 μL of the stock protein solution was added to each well of the 96-well PCR plate to form a mixture. The plate was sealed well with aluminum plate seal and stored in a drawer at room temperature. […]
The extent of covalent modification of MGLL proteins was determined by liquid chromatography electrospray mass spectrometry analysis of the intact proteins using a Thermo Q-Exactive Plus mass spectrometer. […] The recorded protein mass spectrum was deconvoluted from the raw data file using Protein Deconvolution v4.0 (Thermo). […]
Certain compounds disclosed herein are expected to covalently modify MGLL protein when assessed using the assay described above by at least 1%, such as by at least 5%, 10%, 20%, 30%, 40%, or at least 50%.

[1] = Intrinsic reactivity assay; type: physicochemical; details: pH 7.4, 37° C., suitably protected Cys-OMe
Text: Understanding of the intrinsic reactivity of electrophilic warheads with nucleophilic molecules is an important parameter influencing the stability of a compound in biological matrices. Lower intrinsic reactivity also mitigates the risk of covalent off-target reactivity. A common target residue for covalent drugs is cysteine, an amino acid containing a nucleophilic thiol side chain. The assay described here measures the rate of a compound forming a covalent bond with Boc-protected cysteine methyl ester or cysteine methyl ester that can be used as a surrogate for cysteines found on proteins.
Test compounds are prepared as 10 mM stock solutions in DMSO (Fisher cat #BP231-100). Compounds with molecular weight differing more than 3 Dalton are pooled and diluted to 5 μM in 100 mM potassium phosphate buffer, pH 7.4, containing 50 mM Boc-protected cysteine methyl ester (Combi-Blocks cat #QH-3424). Compounds incubated without Boc-protected cysteine methyl ester serve as controls. The reactions are incubated at 37° C., and reaction aliquots at different time intervals are sampled from the reaction and quenched with formic acid for subsequent LC-MS/MS analysis.
The LC-MS/MS analysis is done using a LC-40D×3 pump and SIL-40C×3 autosampler (Shimadzu) coupled to a QTRAP 6500+ (Sciex). Compounds are separated on a XBridge Premier BEH column (Waters). The sample run time is about 4 minutes per injection. The normalized peak area for each compound is extracted from the mass spectrometry raw files, and the data for each compound are plotted against time in Prism version 9.4 (GraphPad). Nonlinear regression using one-phase decay is used to estimate the rate of covalent bond formation with Boc-protected cysteine methyl ester or cysteine methyl ester and parent compound half-life (t½).

Sequence of BTK wildtype protein (Q06187 2-659): as the sequence (Q06187 2-659 C481S) above, with S480C counted along it

| pIC50 (BTK wildtype protein) | pIC50 (BTK C481S protein) | % MGLL protein modification (MGLL) | Structure (SMILES) | K (min^−1), intrinsic rate constant [1] |
| --- | --- | --- | --- | --- |
| ≥ 6.00 | ≥ 6.00 | over 50% | CN(C(=O)n1cncn1)C1CCC(n2nc(-c3ccc(Oc4ccccc4)cc3)c3c(N)ncnc32)CC1 (centres unmarked) [Compound 133, N-(4-(4-amino-3-(4-phenoxyphenyl)-1H-pyrazolo[3,4-d]pyrimidin-1-yl)cyclohexyl)-N-methyl-1H-1,2,4-triazole-1-carboxamide] |  |
|  |  |  | C=CC(=O)N(CC)CC | 0.0012 min⁻¹ |
|  |  |  | C=CC(=O)N1CCCCC1C (centres unmarked) | 0.0029 min⁻¹ |
